assay: recombinant barcode read abundance after kanamycin selection (control-corrected) (log10(CPM+1)); higher = more efficient recombination; sequences stand for … in AGTGCAGAGAAAATCGGCCAGTTTTCTCTGCCTGCAGTCCGCATGCCGT…AGATTTATGCAGCGGACTGCCTTTCTCCCAAAGTGATAAACCGGACAGTATCATGGACCGGTTTTCCCGGTAATCCGTATTTGCAAGGTTGGTTTCACT; site = the 11-nt target
Procedure: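 Pooled E. coli target-specificity screen for the IS621 bridge recombinase. Each library plasmid pairs an 11-nt target (CT core) with a bridge RNA whose target-binding loop (9-nt LTG + 4-nt RTG) is reprogrammed; the rest of the 177-nt WT IS621 bridge RNA scaffold is fixed. The plasmid is co-electroporated with a WT donor plasmid; recombinase is induced with 0.1 mM IPTG and recombinants are selected on kanamycin. Recombinant barcodes are sequenced, converted to CPM, averaged over two biological replicates and corrected by the unselected control CPM. Molecule = full bridge RNA written as DNA: LTG = specificity nt 1-9, RTG = reverse complement of specificity nt 8-11, in the WT scaffold.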
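Also: IS621 recombinase and bridge RNA in Escherichia coli cells.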

| Sequence | recombinant barcode read abundance (log10) |
| --- | --- |
| ACAGTAGCTTGGGTTCTAACCTGTTGCCG (site ACAGTAGCTCG) | 0.862 |
| ACATACACTTGGGTTCTAACCTGTTGCCT (site ACATACACTAG) | 0.991 |
| ACATACACTTGGGTTCTAACCTGTTGCCT (site ACCTACCCTAG) | 0.298 |
| ACATCAACTTGGGTTCTAACCTGTTGCCT (site ACATCAACTAG) | 0.807 |
| ACATCAACTTGGGTTCTAACCTGTTGCCT (site ACCTCAACTAG) | 0.0149 |
| ACATCAACTTGGGTTCTAACCTGTTGCCT (site ACGTCAACTAG) | 0.0953 |
| ACATCAACTTGGGTTCTAACCTGTTGCCT (site ACTTCAACTAG) | 0.0926 |
| ACATCTACTTGGGTTCTAACCTGTTGCTA (site ACATCTACTTA) | 0.145 |
| ACATCTACTTGGGTTCTAACCTGTTGCTA (site ACTTCTACTTA) | 0.0475 |
| ACATGGTCTTGGGTTCTAACCTGTTGCGT (site ACATGGTCTAC) | 2.92 |
| ACATGGTCTTGGGTTCTAACCTGTTGCGT (site ACTGGGTCTAC) | 0.115 |
| ACATGTCCTTGGGTTCTAACCTGTTGCCT (site ACATGTCCTAA) | 0.0846 |
| ACATGTCCTTGGGTTCTAACCTGTTGCCT (site ACATGTCCTAC) | 0.0127 |
| ACATGTCCTTGGGTTCTAACCTGTTGCCT (site ACATGTCCTAG) | 0.828 |
| ACATGTCCTTGGGTTCTAACCTGTTGCCT (site ACATGTCCTAT) | 0.00753 |
| ACATGTCCTTGGGTTCTAACCTGTTGCTT (site ACATGTCCTAA) | 0.333 |
| ACATGTCCTTGGGTTCTAACCTGTTGCTT (site ACATGTCCTAC) | 0.0155 |
| ACATGTCCTTGGGTTCTAACCTGTTGCTT (site ACATGTCCTAG) | 0.136 |
| ACATGTCCTTGGGTTCTAACCTGTTGCTT (site ACATGTCCTAT) | 0.287 |
| ACATGTGCTTGGGTTCTAACCTGTTGCCT (site ACAGGTGCTAG) | 0.0246 |
| ACATGTGCTTGGGTTCTAACCTGTTGCCT (site ACATGTGCTAG) | 1.66 |
| ACATTAGCTTGGGTTCTAACCTGTTGCTG (site ACAATAGCTCA) | 0.182 |

| Sequence | recombinant barcode read abundance (log10) |
| --- | --- |
| ACATTAGCTTGGGTTCTAACCTGTTGCTG (site ACACTAGCTCA) | 0.0561 |
| ACATTAGCTTGGGTTCTAACCTGTTGCTG (site ACAGTAGCTCA) | 0.18 |
| ACATTAGCTTGGGTTCTAACCTGTTGCTG (site ACATTAGCTCA) | 0.603 |
| ACATTGTCTTGGGTTCTAACCTGTTGCGG (site ACAATGTCTCC) | 0.13 |
| ACATTGTCTTGGGTTCTAACCTGTTGCGG (site ACACTGTCTCC) | 0.236 |
| ACATTGTCTTGGGTTCTAACCTGTTGCGG (site ACAGTGTCTCC) | 0.00595 |
| ACATTGTCTTGGGTTCTAACCTGTTGCGG (site ACATTGTCTCC) | 1.1 |
| ACCAACACTTGGGTTCTAACCTGTTGCTT (site ACCAACACTAA) | 0.115 |
| ACCAACACTTGGGTTCTAACCTGTTGCTT (site TATTTAGCTCC) | 0.259 |
| ACCACGCCTTGGGTTCTAACCTGTTGCCT (site ACCACGCCTAG) | 0.342 |
| ACCACGCCTTGGGTTCTAACCTGTTGCCT (site ATCACGCCTAG) | 0.0537 |
| ACCAGCCCTTGGGTTCTAACCTGTTGCTG (site ACCAGCCCTCA) | 1.38 |
| ACCAGCCCTTGGGTTCTAACCTGTTGCTG (site TGATATTCTAG) | 0.0743 |
| ACCAGTCCTTGGGTTCTAACCTGTTGCTA (site ACCAGTCCTCA) | 0.065 |
| ACCAGTCCTTGGGTTCTAACCTGTTGCTA (site ACCAGTCCTTA) | 0.934 |
| ACCATACCTTGGGTTCTAACCTGTTGCAT (site ACCATACCTAT) | 0.385 |
| ACCATACCTTGGGTTCTAACCTGTTGCAT (site TAGGATTCTGC) | 0.124 |
| ACCCAATCTTGGGTTCTAACCTGTTGCAC (site ACCCAATCTGT) | 1.94 |
| ACCCAATCTTGGGTTCTAACCTGTTGCAC (site TAGGCTACTTG) | 0.0478 |
| ACCCAGCCTTGGGTTCTAACCTGTTGCCT (site ACCCAGCCTAA) | 0.146 |
| ACCCAGCCTTGGGTTCTAACCTGTTGCCT (site ACCCAGCCTAC) | 1.27 |
| ACCCAGCCTTGGGTTCTAACCTGTTGCCT (site ACCCAGCCTAG) | 1.44 |

| Sequence | recombinant barcode read abundance (log10) |
| --- | --- |
| ACCCAGCCTTGGGTTCTAACCTGTTGCCT (site ACCCAGCCTAT) | 0.522 |
| ACCCAGTCTTGGGTTCTAACCTGTTGCGG (site ACCCAGTCTCC) | 2.08 |
| ACCCAGTCTTGGGTTCTAACCTGTTGCGG (site GTAAGTGCTAT) | 0.151 |
| ACCCCGTCTTGGGTTCTAACCTGTTGCCT (site ACCCCGTCTAG) | 1.65 |
| ACCCCGTCTTGGGTTCTAACCTGTTGCCT (site ACCCTGTCTCG) | 0.0376 |
| ACCCTGTCTTGGGTTCTAACCTGTTGCCG (site ACCCCGTCTAG) | 0.0728 |
| ACCCTGTCTTGGGTTCTAACCTGTTGCCG (site ACCCTGTCTCG) | 2.44 |
| ACCCTTACTTGGGTTCTAACCTGTTGCCT (site AACCTTACTAG) | 0.0611 |
| ACCCTTACTTGGGTTCTAACCTGTTGCCT (site ACCCTTACTAG) | 1.07 |
| ACCCTTACTTGGGTTCTAACCTGTTGCCT (site AGCCTTACTAG) | 0.00699 |
| ACCCTTACTTGGGTTCTAACCTGTTGCCT (site ATCCTTACTAG) | 0.142 |
| ACCGAGACTTGGGTTCTAACCTGTTGCCT (site ACCGAGACTAG) | 0.224 |
| ACCGAGACTTGGGTTCTAACCTGTTGCCT (site ACCGCGACTAG) | 0.113 |
| ACCGAGACTTGGGTTCTAACCTGTTGCCT (site ACCGGGACTAG) | 0.0279 |
| ACCGAGACTTGGGTTCTAACCTGTTGCCT (site ACCGTGACTAG) | 0.0449 |
| ACCGAGGCTTGGGTTCTAACCTGTTGCCT (site AACGACGCTAG) | 0.193 |
| ACCGAGGCTTGGGTTCTAACCTGTTGCCT (site ACCGAGGCTAG) | 0.824 |
| ACCGCGACTTGGGTTCTAACCTGTTGCCT (site ACCGAGACTAG) | 0.0792 |
| ACCGCGACTTGGGTTCTAACCTGTTGCCT (site ACCGCGACTAG) | 0.0908 |
| ACCGCGACTTGGGTTCTAACCTGTTGCCT (site ACCGGGACTAG) | 0.218 |
| ACCGCGACTTGGGTTCTAACCTGTTGCCT (site ACCGTGACTAG) | 0.121 |
| ACCGCTTCTTGGGTTCTAACCTGTTGCCT (site AACGCTTCTAG) | 0.096 |
